Experimental data: patent US9532990B2 (Zhejiang DTRM Biopharma Co. Ltd., priority 2014, dated 2017)

Tested on: TMD-8 cells
Assay: Inhibition assay of tumor cell activity (cell viability)
Type: cell-based, human
Conditions: single agent, 48 hours, AVG
Method: Inhibition Assay of Tumor Cell Activity:
Tumor cells (TMD-8, DoHH2 and WSU-DLCL2) were transferred and attached to 96-well plates. After one night, blank buffer and selected concentrations (0.01 nM-100 μM) of the test compound solution were added. After 48 hours incubation, CellTiter-Go was added to lyse the cells. Recording luminescent signal and calculate the percent inhibition of cell viability.
TMD-8 is a sensitive human diffuse large B-cell lymphoma cell line, and DoHH2 is a more difficult to treat human follicular lymphoma cell line, while WSU-DLCL2 is a multi-drug resistant (MDR) human non-Hodgkin's lymphoma cell line. Drug combination therapies provided better efficacies in all three tumor models than single targeted agent alone.

## C=CC(=O)N1CC[C@@H](n2nc(-c3ccc(Oc4c(F)c(F)cc(F)c4F)cc3F)c3c(N)ncnc32)C1 [Compound 45, 1-((R)-3-(4-amino-3-(2-fluoro-4-(2,3,5,6-tetrafluorophenoxy)phenyl)-1H-pyrazolo[3,4-d]pyrimidin-1-yl)pyrrolidin-1-yl)prop-2-en-1-one]
0.01 μM
  Inh % TMD-8 cell viability: 51.66%
0.1 μM
  Inh % TMD-8 cell viability: 52.40%
1 uM
  Inh % TMD-8 cell viability: 55.05%
